Source: patent publication US9096499B2, “Compounds for treatment of cell proliferative diseases” (Board of Regents, The University of Texas System, priority 2003, dated 2015)
Entries after “also recorded” stand apart in the source; their conditions may differ.

Experiments:
[1] = test system: MM-1 MM cells; assay: MTT cell growth and survival assay, MM-1 MM cells; assay type: cell-based; conditions: 72 hours; for IC50: MTT assay, read-out: IC50 (μM) MM1; for Growth and survival of MM1 cells (in words): MTT, FIG. 2A/3A
Protocol: (§1) To determine the effect of AG and WP compounds on MM cell growth/survival, MM cells were incubated with the indicated concentration of AG or WP for 72 hours before cell growth and survival were estimated by MTT assay.
(§2) To determine the effect of AG and WP compounds on MM cell growth/survival MM cells were incubated with the indicated concentration of AG or WP for 72 hours before cell growth and survival were estimated by MTT assay.

[2] = test system: Stat3; assay: IL-6 mediated Stat3 activation (p-Stat3 immunoblot) in MM cells; assay type: cell-based; design: key to P-Stat 3: (inhibition = ↓); (no effect) = —; conditions: for Suppression of IL-6 signaling (Stat3 activation): MM-1 cells, 2 hr pretreatment, 12 and 25 μM, IL-6 10 min; for P-Stat 3: Stat3 inhibition
Protocol: (§3) To examine the effect of newly synthesized AG and WP compounds on cytokine-mediated Stat activation, multiple myeloma (MM-1) cells were pretreated with AG490 or AG1801 at 2.5, 12, and 25 μM concentrations (for 2 hr) before stimulating cells with IL-6 or IFN-α for 10 min. Stat3 and Stat1 expression and activation were examined by immunoblotting.
(§4) To determine the effect of compounds on both Stat3 activation and c-myc protein expression MM-1, OCI-My5 and U266 cells were incubated with 25 μM of AG1801, AG490, WP1038, WP1039, WP1051, or WP1052 for 2 hours before cells were stimulated with 2 ng/ml IL-6 for 10 min. Cell lysates were prepared and immunoblotted for p-Stat3, Stat3, c-myc and actin (as a control). Both Stat3 activation and c-myc expression were effected by WP and AG compounds.

[3] = test system: U266 MM cells; assay: MTT cell growth and survival assay, U266 MM cells; assay type: cell-based; conditions: 72 hours; for Growth and survival of U266 cells (in words): MTT, FIG. 2C/3C; for IC50: Homo sapiens, U-266, MTT assay
Protocol: as §1, §2

[4] = test system: OCI MM cells; assay: MTT cell growth and survival assay, OCI MM cells; assay type: cell-based; conditions: 72 hours; for IC50: MTT assay; for Growth and survival of OCI cells (in words): MTT, FIG. 2B/3B
Protocol: as §1, §2

[5] = test system: Jak2/Stat3 signaling; conditions: literature; cited from earlier work
[6] = literature; cited from earlier work
[7] = test system: MM colonies from bone marrow aspirates of MM patients; assay: Primary MM colony formation in methyl-cellulose; assay type: cell-based, human; conditions: 7 to 10 days
Protocol: To determine whether these compounds effect primary MM colony growth bone marrow aspirates from MM patients were partially-purified by magnetic bead separation and analyzed for immunoglobulin heavy-chain gene rearrangement by PCR. Cells were grown as colonies in methyl-cellulose in the presence or absence of AG compound as noted for 7 to 10 days. Control colonies were examined for Ig heavy chain gene rearrangement to confirm the clonal nature of the population.

[8] = test system: OCI-My5 cells; assay: Caspase activation and PARP cleavage in OCI-My5 cells; assay type: cell-based; conditions: 12.5 and 25 μM
Protocol: To determine whether AG1801 effects caspase activation in MM cells, OCI-My5 cells were treated as described above before cell lysates were examined for casapase activation and PARP cleavage. […] At 12.5 and 25 μM, AG490 was ineffective in caspase activation and PARP clevage in these cells.

[9] = test system: c-myc; assay: c-myc protein expression by immunoblot in MM cells; assay type: cell-based; design: key to C-Myc: (inhibition = ↓); (no effect) = —; conditions: for c-myc expression, temporal effects: MM-1 cells, 25 and 50 μM, 30, 60, 120 min; for C-Myc: c-myc downregulation, immunoblot
Protocol: as §4, with “control).” for “control). Both Stat3 activation and c-myc expression were effected by WP and AG compounds.”
(§5) To determine the temporal effects and mechanism of action of AG490 and AG1801 action on c-myc expression in MM cells, MM-1 cells were incubated with 0, 25, or 50 μM of AG490 or AG1801 and harvested at 30, 60, or 120 min. Lysates were immunoblotted for c-myc or actin as a protein loading control. […] Semi-quantitative PCR was used to measure changes in c-myc mRNA extracted from cells treated for 30 min with AG1801 at 25 μM. GAPDH PCR was used as a control.
These compounds were evaluated for their signal inhibitory and anti-proliferative/apoptotic properties on multiple myeloma, lymphoma and chronic myelogenous leukemia cell lines. WP1015, WP1034, AG1801, and AG490 were tested across a range of concentrations (6,12, and 25 μM) for their ability to inhibit c-myc expression using immunoblots.
These immunoblots tested a range of concentrations (1.56-25 μM for WP compounds) and used β-actin as a control.

[10] = test system: c-myc mRNA; assay: Semi-quantitative PCR of c-myc mRNA in MM-1 cells; assay type: cell-based; conditions: 25 μM, 30 min
Protocol: as §5

[11] = test system: IFN-α signaling; assay: IFN-α signaling (Stat1) immunoblot in MM-1 cells; assay type: cell-based; conditions: 12 and 25 μM, IFN-α 10 min
Protocol: as §3

[12] = test system: c-myc; assay: c-myc protein immunoblot in LP non-Hodgkin lymphoma cells; assay type: cell-based
Protocol: Additional cell types were examined for response to treatment with WP1066.
(§6) Further studies were conducted to determine the dose and time dependent effects of these new compounds on IL-6 mediated Stat3 activation, c-myc protein expression and anti-proliferative of LP and other cell types.

[13] = test system: MM-1, Mino, WDT-2, WDT-3, K562, K562-R cell lines; assay: Anti-proliferative/apoptotic action on c-myc overexpressing cell lines (FIG. 5); assay type: cell-based; conditions: FIG. 5, incl. Imatinib-resistant K562-R
Description: The anti-proliferative/apoptotic actions of WP1066 were also examined on cell lines known to overexpress c-myc. […] Thus WP1066 clearly exerts a potent inhibition of cell proliferation and/or survival in multiple cancer cell lines, and WP1066 will be used as a therapeutic.

[14] = test system: human A375 melanoma tumors; assay: A375 melanoma tumors in nude mice; assay type: in vivo, Swiss nude mice; conditions: 40 mg/kg i.p. every other day, 8 injections from day 7, to day 21
Protocol: The results of animal studies of human A375 melanoma tumors growing in nude mice, treated with WP1066 after tumors reached a palpable size, are shown in FIG. 8. The following animal model was used to evaluate the anti-tumor and anti-cancer effects of the compounds: on Day 0, A375 cells were suspended to 20×10^6 cells/ml in RPMI 1640 medium. On day 0, 0.2 ml of this suspension containing A375 cells was injected (s.c.) into female Swiss nude mice 6-7 weeks of age. On Day 7, 40 mg/kg of WP1066 was injected (i.p.) into the above mice in a 0.1 ml suspension of DMSO/PEG300 (50/50) on a qd, every other day schedule for 8 injections. Five mice per experimental group were used, including a vehicle (DMSO/PEG300) control group. Animals received 40 mg/kg WP1066 every other day […] for a total of 8 injections. The control group reached maximum tumor burden at day 21, and for this reason the experiment was stopped.

[15] = test system: Stat3; assay: IL-6 mediated Stat3 activation immunoblot in LP cells; assay type: cell-based; conditions: 3-25 μM
Protocol: as §6

[16] = test system: c-myc/Stat3; assay: Stat3/c-myc inhibitory activity in MM-1 cells (FIG. 7); assay type: cell-based
Description: An improved inhibition of c-myc/Stat3 by WP1066, WP1130, and WP1129 was observed (FIG. 7). The compounds were compared with regard to their Stat3/c-myc inhibitory activity in MM-1 cells.

Compound | IC50 [1] | Growth and survival of MM1 cells (in words) [1] | Suppression of IL-6 signaling (Stat3 activation) [2] | P-Stat 3 ([2]; immunoblot) | Growth and survival of U266 cells (in words) [3] | IC50 [3] | IC50 [4] | Growth and survival of OCI cells (in words) [4] | Caspase activation (caspase 3 and caspase 8) [8] | PARP cleavage [8] | c-myc expression, temporal effects [9] | C-Myc [9] | also measured
N#C/C(=C\c1ccc(O)c(O)c1)C(=O)NCc1ccccc1 [AG 490, reference compound] | > 12.5 µM | effective in reducing the growth and survival | inactive | ↓ | effective in reducing the growth and survival | > 12.5 µM | > 12.5 µM | effective in reducing the growth and survival | ineffective | ineffective | completely unable to affect c-myc expression | ↓ | P-Stat 3: concentration at which inhibition is seen ([2]; immunoblot): > 25 µM; Concentration needed to achieve inhibition of Jak2/Stat3 signaling and anti-tumor effects [5]: 50 to 100 µM; Activity in animal studies [6]: limited activity; Inhibition of MM colony formation ([7]; 25 μM): less effective; Inhibition of c-myc protein expression ([9]; 6, 12, 25 μM, AG490 up to 50 μM): little or no effect
N#C/C(=C\c1ccc([N+](=O)[O-])cc1)C(=O)NCc1ccccc1 [AG 1801] | 7.5 µM | effective in reducing the growth and survival; also recorded: demonstrated increased potency compared to AG490 | effective in suppressing IL-6 signaling | ↓ | effective in reducing the growth and survival; also recorded: demonstrated increased potency compared to AG490 | 9 µM | 12 µM | effective in reducing the growth and survival; also recorded: demonstrated increased potency compared to AG490 | activated both upstream and downstream caspases | increased PARP clevage | rapidly reduced c-myc expression | ↓ | c-myc mRNA expression [10]: minimal effects; Inhibition of MM colony formation ([7]; 12 μM): completely inhibited MM colony formation; Effect on IFN-α signaling [11]: without effecting IFN-α
C[C@H](NC(=O)/C(C#N)=C/c1cccc(Br)n1)c1ccccc1 [WP 1066] | 1.3 µM | – | – | – | – | – | – | – | – | – | – | ↓ | c-myc expression ([12]; LP cells, 3-25 μM): reduced c-myc expression; Downregulation of c-myc protein ([12]; LP cells, 5, 15, 30, 60 min): rapid downregulation of c-myc protein; Reduction in c-myc at shortest incubation ([12]; LP cells, 5 min): strong reduction; Cell proliferation and/or survival in multiple cancer cell lines [13]: dose-dependent anti-tumor effects; also recorded: effective in reducing cell proliferation; Tumor size / tumor volume in vivo [14]: decrease tumor size; also recorded: reduces tumor volume; IL-6 mediated Stat3 activation [15]: blocked IL-6 mediated Stat3 activation; also recorded: slightly better activity than WP1015; Suppression of c-myc protein expression ([9]; 1.56-25 μM WP compounds, CHX 0-30 min at much higher concentrations): more active in suppressing c-myc protein expression than WP1015; Inhibition of c-myc/Stat3 [16]: Strong inhibition
